Laboratory results reported in US20200264182A1, “METHOD FOR DETECTING PROSTATE CANCER” (J-OIL MILLS, INC., priority 2017, published 2020).
Where no end group is shown, it is not given here.

How the values were obtained:
[1] = FAC binding constant (Table 5 entry); conditions: Table 5: sugar chain having no fucose; at 25° C.
In short: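 The read-out is a binding constant at 25° C, obtained by FAC for the lectins PhoSL, SRL, NSL and LSL with a series of sugar chains.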

[2] = tested on: serum fucosylated PSA; assay: Sandwich ELISA, anti-PSA antibody and biotin-labeled lectin; type: binding, human; conditions: for Δ (=A − B): reaction value of Prostate cancer 4 minus Healthy 1; for lectin reaction value B of Healthy 1: serum of Healthy 1; for lectin reaction value A of Prostate cancer 4: serum of Prostate cancer 4, GS 6 (3 + 3)
In short: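 De-glycosylated anti-PSA antibody (5 μg/mL) captured PSA from 2-fold diluted serum, detected with biotin-PhoSL (0.1 μg/mL, 4° C, 30 min) in 0.1% BSA/diluted PBS+glycine-NaOH pH 9.6 or PBS pH 7.4, then HRP-streptavidin/TMB at Ab450-630. Values in U/mL from fucosylated PSA calibration, 10 ng/mL defined as 10 U/mL; AAL substituted for comparison.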

[3] = subject samples A, 7 healthy persons, pH 9.6
[4] = subject samples A, 9 patients, pH 9.6
[5] = subject samples B, n 9, high blood PSA but no cancer in biopsy, pH 9.6
[6] = subject samples B, n 11, pH 9.6

PhoSL: fucose α1→6 specific lectin that can be extracted from Pholiota squarrosa, SEQ ID No. 1 (APVPVTKLVCDGDTYKCTAYLDFGDGRWVAQWDTNVFHTG; not fully specified; ends and bridges not checked)
Binding constant for sugar chain No. 728 [1]: <1000 M⁻¹ | Δ (=A − B) ([2]; pH in lectin reaction 7.4): 72.6 U/mL | Δ (=A − B) ([2]; pH in lectin reaction 9.6): 126.9 U/mL | lectin reaction value B of Healthy 1 ([2]; pH in lectin reaction 7.4): 35.8 U/mL | lectin reaction value B of Healthy 1 ([2]; pH in lectin reaction 9.6): 51.9 U/mL | lectin reaction value of Healthy 2 ([2]; serum of Healthy 2, pH in lectin reaction 9.6): 55.9 U/mL | lectin reaction value of Healthy 3 ([2]; serum of Healthy 3, pH in lectin reaction 9.6): 63.9 U/mL | lectin reaction value of Healthy 4 ([2]; serum of Healthy 4, pH in lectin reaction 9.6): 74.9 U/mL | lectin reaction value of Healthy 5 ([2]; serum of Healthy 5, pH in lectin reaction 9.6): 55.8 U/mL | lectin reaction value of Healthy 6 ([2]; serum of Healthy 6, pH in lectin reaction 9.6): 39.7 U/mL | lectin reaction value of Healthy 7 ([2]; serum of Healthy 7, pH in lectin reaction 9.6): 59.0 U/mL | lectin reaction value of Prostate cancer 1 ([2]; serum of Prostate cancer 1, GS 4 (2 + 2), pH in lectin reaction 9.6): 115.8 U/mL | lectin reaction value of Prostate cancer 2 ([2]; serum of Prostate cancer 2, GS 5 (2 + 3), pH in lectin reaction 9.6): 116.7 U/mL | lectin reaction value of Prostate cancer 3 ([2]; serum of Prostate cancer 3, GS 6 (3 + 3), pH in lectin reaction 9.6): 104.5 U/mL | lectin reaction value A of Prostate cancer 4 ([2]; pH in lectin reaction 7.4): 108.4 U/mL | lectin reaction value A of Prostate cancer 4 ([2]; pH in lectin reaction 9.6): 178.8 U/mL | lectin reaction value of Prostate cancer 5 ([2]; serum of Prostate cancer 5, GS 7 (3 + 4), pH in lectin reaction 9.6): 115.8 U/mL | lectin reaction value of Prostate cancer 6 ([2]; serum of Prostate cancer 6, GS 7 (3 + 4), pH in lectin reaction 9.6): 167.5 U/mL | lectin reaction value of Prostate cancer 7 ([2]; serum of Prostate cancer 7, GS 8 (3 + 5), pH in lectin reaction 9.6): 125.6 U/mL | lectin reaction value of Prostate cancer 8 ([2]; serum of Prostate cancer 8, GS 8 (4 + 4), pH in lectin reaction 9.6): 129.8 U/mL | lectin reaction value of Prostate cancer 9 ([2]; serum of Prostate cancer 9, GS 8 (4 + 4), pH in lectin reaction 9.6): 251.4 U/mL | reaction value, Healthy person group, Average value [2, 3]: 57.3 U/mL | reaction value, Healthy person group, Median value [2, 3]: 55.9 U/mL | reaction value, Prostate cancer patient group, Average value [2, 4]: 145.1 U/mL | reaction value, Prostate cancer patient group, Median value [2, 4]: 125.6 U/mL | reaction value, GS6, Mean value ([2]; subject samples A, n 2, pH 9.6): 141.7 U/mL | reaction value, GS6, Median value ([2]; subject samples A, n 2, pH 9.6): 141.7 U/mL | reaction value, GS7, Mean value ([2]; subject samples A, n 2, pH 9.6): 141.7 U/mL | reaction value, GS7, Median value ([2]; subject samples A, n 2, pH 9.6): 141.7 U/mL | reaction value, Negative (GS5 or less), Mean value ([2]; subject samples A, n 2, pH 9.6): 116.3 U/mL | reaction value, Negative (GS5 or less), Median value ([2]; subject samples A, n 2, pH 9.6): 116.3 U/mL | reaction value, GS8 or more, Mean value ([2]; subject samples A, n 3, pH 9.6): 129.8 U/mL | reaction value, GS8 or more, Median value ([2]; subject samples A, n 3, pH 9.6): 168.9 U/mL | reaction value, GS8-9, Mean value ([2]; subject samples B, n 6, pH 9.6): 232.9 U/mL | reaction value, GS8-9, Median value ([2]; subject samples B, n 6, pH 9.6): 239.8 U/mL | reaction value, Negative, Mean value [2, 5]: 203.8 U/mL | reaction value, Negative, Median value [2, 5]: 178.0 U/mL | reaction value, GS6, Mean value ([2]; subject samples B, n 9, pH 9.6): 181.7 U/mL | reaction value, GS6, Median value ([2]; subject samples B, n 9, pH 9.6): 188.9 U/mL | reaction value, GS7, Mean value [2, 6]: 119.5 U/mL | reaction value, GS7, Median value [2, 6]: 210.6 U/mL
